Laboratory results from patent publication US20230172206A1 (BASF SE, priority 2020, published 2023).

Assays:
[1] = tested on: Phakopsora pachyrhizi (F129L); experiment: Protective control of soybean rust on soybeans (PHAKPA P6); assay type: in vivo; conditions: for % PHAKPA (F129L) Disease level P6 at 4 ppm: protective P6, 4 ppm; for % PHAKPA (F129L) Disease level P6 at 16 ppm: protective P6, 16 ppm
[2] = tested on: Phakopsora pachyrhizi (F129L); experiment: Protective control of soybean rust on soybeans (PHAKPA P2); assay type: in vivo; conditions: for % PHAKPA (F129L) Disease level P2 at 4 ppm: protective P2, 4 ppm; for % PHAKPA (F129L) Disease level P2 at 16 ppm: protective P2, 16 ppm

| SMILES | % PHAKPA (F129L) Disease level P6 at 4 ppm ([1]; soybean rust F129L isolate) [%] | % PHAKPA (F129L) Disease level P6 at 16 ppm ([1]; soybean rust F129L isolate) [%] | % PHAKPA (F129L) Disease level P2 at 4 ppm ([2]; soybean rust F129L isolate) [%] | % PHAKPA (F129L) Disease level P2 at 16 ppm ([2]; soybean rust F129L isolate) [%] | % PHAKPA (F129L) Disease level P6 at 4 ppm ([1]; F129L isolate) [%] | % PHAKPA (F129L) Disease level P6 at 16 ppm ([1]; F129L isolate) [%] | % PHAKPA (F129L) Disease level P2 at 4 ppm ([2]; F129L isolate) [%] | % PHAKPA (F129L) Disease level P2 at 16 ppm ([2]; F129L isolate) [%] |
| --- | --- | --- | --- | --- | --- | --- | --- | --- |
| CNC(=O)/C(=N/OC)c1cccc(C)c1CO/N=C(\C)c1ccccc1C(C)(F)F [compound 372] | 85 | 16 | 85 | 26 | – | – | – | – |
| CO/N=C(/C(=O)OC)c1cccc(C)c1CO/N=C(\C)c1ccc(Cc2ccccc2)cc1OC(F)(F)F [compound 416] | – | – | – | – | 67 | 25 | 57 | 27 |
| CO/N=C(/C(=O)OC)c1cccc(C)c1CO/N=C(\C)c1c(F)cc(Br)cc1C(F)(F)F [compound 368] | 90 | 73 | 83 | 47 | – | – | – | – |
| CO/N=C(/C(=O)OC)c1cccc(C)c1CO/N=C(\C)c1ccc(-c2ccccc2)cc1C(F)(F)F [compound 414] | – | – | – | – | 53 | 15 | 53 | 9 |
| CO/C=C(/C(=O)OC)c1cccc(C)c1CO/N=C(\C)c1c(Cl)ccc(F)c1OC(F)(F)F [compound 442] | – | – | – | – | 80 | 77 | 100 | 93 |
| CO/N=C(/C)c1ccc(/C(C)=N/OCc2c(C)cccc2/C(=N\OC)C(=O)OC)c(OC(F)(F)F)c1 [compound 418] | – | – | – | – | 73 | 57 | 70 | 33 |
| CNC(=O)/C(=N/OC)c1cccc(C)c1CO/N=C(\C)c1cc(Cl)ccc1C(F)(F)F [compound 245] | 13 | 2 | 28 | 8 | – | – | – | – |
| CNC(=O)/C(=N/OC)c1cccc(C)c1CO/N=C(\C)c1cccc(C2CC2)c1 [compound 299] | 53 | 22 | 53 | 13 | – | – | – | – |
| CNC(=O)/C(=N/OC)c1cccc(C)c1CO/N=C(\C)c1c(F)cccc1C(F)(F)F [compound 345] | 32 | 1 | 22 | 1 | – | – | – | – |
| CNC(=O)/C(=N/OC)c1cccc(C)c1CO/N=C(\C)c1c(F)cc(F)cc1C(F)(F)F [compound 357] | 18 | 0 | 13 | 1 | – | – | – | – |
| CO/N=C(/C(=O)OC)c1cccc(C)c1CO/N=C(\C)c1ccccc1OC(F)(F)F [compound 236] | 97 | 100 | 97 | 77 | – | – | – | – |
| CNC(=O)/C(=N/OC)c1cccc(C)c1CO/N=C(\C)c1cccc(N2CC(F)(F)C2)c1 [compound 282] | – | 18 | – | 15 | – | – | – | – |
| CNC(=O)/C(=N/OC)c1cccc(C)c1CO/N=C(\C)c1cc(F)c(F)cc1C(F)(F)F [compound 410] | – | – | – | – | 35 | 1 | 9 | 0 |
| CNC(=O)/C(=N/OC)c1cccc(C)c1CO/N=C(\C)c1ccc(OC(F)(F)F)cc1C [compound 261] | 87 | 32 | 70 | 9 | – | – | – | – |
| CNC(=O)/C(=N/OC)c1cccc(C)c1CO/N=C(\C)c1ccc(C)cc1OC(F)(F)F [compound 340] | 42 | 7 | 23 | 4 | – | – | – | – |
| CO/C=C(/C(=O)OC)c1cccc(C)c1CO/N=C(\C)c1ccc(C)cc1C(F)(F)F [compound 446] | – | – | – | – | 6 | 0 | 2 | 0 |

| SMILES | % PHAKPA (F129L) Disease level P6 at 4 ppm ([1]; soybean rust F129L isolate) [%] | % PHAKPA (F129L) Disease level P6 at 16 ppm ([1]; soybean rust F129L isolate) [%] | % PHAKPA (F129L) Disease level P2 at 4 ppm ([2]; soybean rust F129L isolate) [%] | % PHAKPA (F129L) Disease level P2 at 16 ppm ([2]; soybean rust F129L isolate) [%] | % PHAKPA (F129L) Disease level P6 at 4 ppm ([1]; F129L isolate) [%] | % PHAKPA (F129L) Disease level P6 at 16 ppm ([1]; F129L isolate) [%] | % PHAKPA (F129L) Disease level P2 at 4 ppm ([2]; F129L isolate) [%] | % PHAKPA (F129L) Disease level P2 at 16 ppm ([2]; F129L isolate) [%] |
| --- | --- | --- | --- | --- | --- | --- | --- | --- |
| CO/N=C(/C(=O)OC)c1cccc(C)c1CO/N=C(\C)c1c(F)cc(F)cc1C(F)(F)F [compound 360] | 80 | 5 | 53 | 9 | – | – | – | – |
| CNC(=O)/C(=N/OC)c1cccc(C)c1CO/N=C(\C)c1c(F)ccc(F)c1C(F)(F)F [compound 359] | 100 | 43 | 100 | 37 | – | – | – | – |
| CO/N=C(/C(=O)OC)c1cccc(C)c1CO/N=C(\C)c1ccc(F)cc1Cl [compound 256] | 70 | 20 | 50 | 18 | – | – | – | – |
| CO/C=C(/C(=O)OC)c1cccc(C)c1CO/N=C(\C)c1ccccc1OC(F)(F)F [compound 462] | – | – | – | – | 55 | 10 | 37 | 6 |
| CO/C=C(/C(=O)OC)c1cccc(C)c1CO/N=C(\C)c1ccc(F)c(F)c1OC(F)(F)F [compound 450] | – | – | – | – | 4 | 1 | 3 | 1 |
| CO/N=C(/C(=O)OC)c1cccc(C)c1CO/N=C(\C)c1cc(F)ccc1C(F)(F)F [compound 249] | 90 | 43 | 87 | 37 | – | – | – | – |
| CO/N=C(/C(=O)OC)c1cccc(C)c1CO/N=C(\C)c1ccc(OC(F)(F)F)cc1F [compound 269] | 18 | 0 | 5 | 0 | – | – | – | – |
| CNC(=O)/C(=N/OC)c1cccc(C)c1CO/N=C(\C)c1cc(Br)cc(F)c1F [compound 241] | 33 | 12 | 3 | 0 | – | – | – | – |
| CNC(=O)/C(=N/OC)c1cccc(OC)c1CO/N=C(\C)c1cccc(C(F)(F)F)c1 [compound 461] | – | – | – | – | 52 | 6 | 26 | 2 |
| CO/N=C(/C(=O)OC)c1cccc(C)c1CO/N=C(\C)c1ccc(F)cc1C(F)(F)F [compound 263] | 73 | 22 | 80 | 15 | – | – | – | – |
| CNC(=O)/C(=N/OC)c1cccc(C)c1CO/N=C(\C)c1ccc(OC(F)(F)F)cc1Cl [compound 271] | – | – | 5 | 1 | – | – | – | – |
| CNC(=O)/C(=N/OC)c1cccc(C)c1CO/N=C(\C)c1cc(C(F)(F)F)ccc1C [compound 273] | – | – | 60 | 3 | – | – | – | – |
| CNC(=O)/C(=N/OC)c1cccc(C)c1CO/N=C(\C)c1cc(C(F)(F)F)ccc1C(F)(F)F [compound 272] | – | – | 60 | 8 | – | – | – | – |
| CNC(=O)/C(=N/OC)c1cccc(C)c1CO/N=C(\C)c1ccccc1OCOC [compound 314] | – | – | 100 | 40 | – | – | – | – |
| CNC(=O)/C(=N/OC)c1cccc(C)c1CO/N=C(\C)c1ccccc1OC(C)C [compound 315] | – | – | 100 | 60 | – | – | – | – |
| CNC(=O)/C(=N/OC)c1cccc(C)c1CO/N=C(\C)c1ccccc1Oc1ccccc1 [compound 321] | – | – | 100 | 40 | – | – | – | – |
